Reference: ChEMBL document CHEMBL3351696, “Design of chemically stable, potent, and efficacious MDM2 inhibitors that exploit the retro-mannich ring-opening-cyclization reaction mechanism in spiro-oxindoles” (J Med Chem, 2014)
pIC50: −log10 of the molar value. Activity calls are given as the source filed them. The rule behind the calls is not given here.

What was measured:
SJSA-1 [1] = assay: cells; details: Homo sapiens
physchem [2] = details: 1:1 CH3CN/H2O
physchem [3] = details: 1:1 CH3CN/H2O; remark: listed apart in the source
physchem [4] = details: 1:1 CH3CN/H2O; remark: listed apart in the source
physchem [5] = details: 1:1 CH3CN/H2O; remark: listed apart in the source
cells [6] = details: Homo sapiens, HCT-116
cells [7] = details: Homo sapiens, HCT-116; remark: listed apart in the source
SJSA-1 [8] = details: Homo sapiens, 200 mg/kg
physchem [9] = details: 1:1 CH3CN/H2O solution
physchem [10] = details: 1:1 MeOH/H2O solution

## CCCC1(CCC)N[C@@H](C(=O)N[C@H]2CC[C@H](O)CC2)[C@H](c2cccc(Cl)c2F)[C@]12C(=O)Nc1cc(Cl)ccc12
SJSA-1 [1]
  pIC50: 5.16

## CCC1(CC)N[C@@H](C(=O)N[C@H]2C[C@@](C)(O)C2)[C@H](c2cccc(Cl)c2F)[C@]12C(=O)Nc1cc(Cl)ccc12
SJSA-1 [1]
  pIC50: < 5.00

## CC(C)(C)C[C@@H]1N[C@@H](C(=O)NCC[C@H](O)CO)[C@H](c2cccc(Cl)c2F)[C@]12C(=O)Nc1cc(Cl)ccc12
Physchem [2]
  remaining at 0 h: 97.5%
Physchem [3]
  remaining at 144 h: 91.4%
Physchem [4]
  remaining at 24 h: 95.8%
Physchem [5]
  remaining at 72 h: 95.7%

## O=C(O)c1ccc(NC(=O)[C@@H]2NC3(CCCCC3)[C@@]3(C(=O)Nc4cc(Cl)ccc43)[C@H]2c2cccc(Cl)c2F)cc1
SJSA-1 [1]
  pIC50: 7.00
Cells [6]
  pIC50: 6.60
Cells [7]
  pIC50: < 5.00

## CC1(C)N[C@@H](C(=O)N[C@H]2CC[C@H](O)CC2)[C@H](c2cccc(Cl)c2F)[C@]12C(=O)Nc1cc(Cl)ccc12
SJSA-1 [1]
  pIC50: 5.54

## O=C(N[C@H]1CC[C@H](O)CC1)[C@@H]1NC2(CCC2)[C@@]2(C(=O)Nc3cc(Cl)ccc32)[C@H]1c1cccc(Cl)c1F
SJSA-1 [1]
  pIC50: 5.80

## O=C(NCC[C@H](O)CO)[C@@H]1NC2(CCC2)[C@]2(C(=O)Nc3cc(Cl)ccc32)[C@H]1c1cccc(Cl)c1F
SJSA-1 [1]
  pIC50: 5.78

## CC(C)(C)C[C@@H]1N[C@@H](C(=O)NCCN2CCOCC2)[C@H](c2cccc(Cl)c2F)[C@]12C(=O)Nc1cc(Cl)ccc12
Physchem [2]
  remaining at 0 h: 98.1%
Physchem [3]
  remaining at 144 h: 82.7%
Physchem [4]
  remaining at 24 h: 90.8%
Physchem [5]
  remaining at 72 h: 86.9%

## O=C(NCCN1CCOCC1)[C@@H]1NC2(CCC2)[C@@]2(C(=O)Nc3cc(Cl)ccc32)[C@H]1c1cccc(Cl)c1F
SJSA-1 [1]
  pIC50: 5.64

## O=C(NCC[C@H](O)CO)[C@@H]1NC2(CCCCC2)[C@@]2(C(=O)Nc3cc(Cl)ccc32)[C@H]1c1cccc(Cl)c1F
Physchem [2]
  remaining at 0 h: 100%
SJSA-1 [1]
  pIC50: 6.70
Physchem [3]
  remaining at 144 h: 100%
Physchem [4]
  remaining at 24 h: 100%
Physchem [5]
  remaining at 72 h: 100%

## O=C(N[C@H]1CC[C@H](O)CC1)[C@@H]1NC2(CCCC2)[C@@]2(C(=O)Nc3cc(Cl)ccc32)[C@H]1c1cccc(Cl)c1F
SJSA-1 [1]
  pIC50: 6.19

## O=C(NCCN1CCOCC1)[C@@H]1NC2(CCCCC2)[C@@]2(C(=O)Nc3cc(Cl)ccc32)[C@H]1c1cccc(Cl)c1F
Physchem [2]
  remaining at 0 h: 100%
SJSA-1 [1]
  pIC50: 6.52
Physchem [3]
  remaining at 144 h: 99.2%
Physchem [4]
  remaining at 24 h: 100%
Physchem [5]
  remaining at 72 h: 99.6%

## CCC1(CC)N[C@@H](C(=O)N[C@H]2CC[C@H](O)CC2)[C@H](c2cccc(Cl)c2F)[C@]12C(=O)Nc1cc(Cl)ccc12
SJSA-1 [1]
  pIC50: 5.27

## O=C(N[C@H]1CC[C@H](O)CC1)[C@@H]1NC2(CCCCCC2)[C@@]2(C(=O)Nc3cc(Cl)ccc32)[C@H]1c1cccc(Cl)c1F
SJSA-1 [1]
  pIC50: 5.68

## CCC1(CC)N[C@@H](C(=O)NCC[C@H](O)CO)[C@H](c2cccc(Cl)c2F)[C@]12C(=O)Nc1cc(Cl)ccc12
SJSA-1 [1]
  pIC50: < 5.00

## C[C@]1(O)C[C@@H](NC(=O)[C@@H]2NC3(CCCCC3)[C@@]3(C(=O)Nc4cc(Cl)ccc43)[C@H]2c2cccc(Cl)c2F)C1
Physchem [2]
  remaining at 0 h: 100%
SJSA-1 [1]
  pIC50: 6.80
Physchem [3]
  remaining at 144 h: 100%
Physchem [4]
  remaining at 24 h: 100%
Physchem [5]
  remaining at 72 h: 100%

## O=C(NCC[C@H](O)CO)[C@@H]1NC2(CCC2)[C@@]2(C(=O)Nc3cc(Cl)ccc32)[C@H]1c1cccc(Cl)c1F
SJSA-1 [1]
  pIC50: 5.68

## O=C(N[C@H]1CC[C@H](O)CC1)[C@@H]1NC2(CCCCC2)[C@@]2(C(=O)Nc3cc(Cl)ccc32)[C@H]1c1cccc(Cl)c1F
SJSA-1 [1]
  pIC50: 6.72
Cells [6]
  pIC50: 6.49
Cells [7]
  pIC50: < 5.00
SJSA-1 [8]
  TGI: Active

## C[C@]1(O)C[C@@H](NC(=O)[C@@H]2NC3(CCC3)[C@@]3(C(=O)Nc4cc(Cl)ccc43)[C@H]2c2cccc(Cl)c2F)C1
SJSA-1 [1]
  pIC50: 5.77

## CC(C)(C)C[C@@H]1N[C@@H](C(=O)N[C@H]2C[C@@](C)(O)C2)[C@H](c2cccc(Cl)c2F)[C@]12C(=O)Nc1cc(Cl)ccc12
Physchem [2]
  remaining at 0 h: 100%
Physchem [9]
  degraded at 168 h: 2%
Physchem [3]
  remaining at 144 h: 97.7%
Physchem [4]
  remaining at 24 h: 99.6%
Physchem [10]
  degraded at 168 h: 2%
Physchem [5]
  remaining at 72 h: 98.6%

## CCC1(CC)N[C@@H](C(=O)NCCN2CCOCC2)[C@H](c2cccc(Cl)c2F)[C@]12C(=O)Nc1cc(Cl)ccc12
SJSA-1 [1]
  pIC50: < 5.00

## C[C@]1(O)C[C@@H](NC(=O)[C@@H]2NC3(CCC3)[C@]3(C(=O)Nc4cc(Cl)ccc43)[C@H]2c2cccc(Cl)c2F)C1
SJSA-1 [1]
  pIC50: 5.84

## O=C(N[C@H]1CC[C@H](O)CC1)[C@@H]1NC2(CCC2)[C@]2(C(=O)Nc3cc(Cl)ccc32)[C@H]1c1cccc(Cl)c1F
SJSA-1 [1]
  pIC50: 5.70

## O=C(NCCN1CCOCC1)[C@@H]1NC2(CCC2)[C@]2(C(=O)Nc3cc(Cl)ccc32)[C@H]1c1cccc(Cl)c1F
SJSA-1 [1]
  pIC50: 5.78
